Results from PMC11408249, “Non-invasive in vivo imaging of changes in Collagen III turnover in myocardial fibrosis” (npj Imaging, 2024).

Molecular target: T1, COL3 (Homo sapiens, UniProt P02461)
T1 sequence (P02461 154-1221 limits assumed): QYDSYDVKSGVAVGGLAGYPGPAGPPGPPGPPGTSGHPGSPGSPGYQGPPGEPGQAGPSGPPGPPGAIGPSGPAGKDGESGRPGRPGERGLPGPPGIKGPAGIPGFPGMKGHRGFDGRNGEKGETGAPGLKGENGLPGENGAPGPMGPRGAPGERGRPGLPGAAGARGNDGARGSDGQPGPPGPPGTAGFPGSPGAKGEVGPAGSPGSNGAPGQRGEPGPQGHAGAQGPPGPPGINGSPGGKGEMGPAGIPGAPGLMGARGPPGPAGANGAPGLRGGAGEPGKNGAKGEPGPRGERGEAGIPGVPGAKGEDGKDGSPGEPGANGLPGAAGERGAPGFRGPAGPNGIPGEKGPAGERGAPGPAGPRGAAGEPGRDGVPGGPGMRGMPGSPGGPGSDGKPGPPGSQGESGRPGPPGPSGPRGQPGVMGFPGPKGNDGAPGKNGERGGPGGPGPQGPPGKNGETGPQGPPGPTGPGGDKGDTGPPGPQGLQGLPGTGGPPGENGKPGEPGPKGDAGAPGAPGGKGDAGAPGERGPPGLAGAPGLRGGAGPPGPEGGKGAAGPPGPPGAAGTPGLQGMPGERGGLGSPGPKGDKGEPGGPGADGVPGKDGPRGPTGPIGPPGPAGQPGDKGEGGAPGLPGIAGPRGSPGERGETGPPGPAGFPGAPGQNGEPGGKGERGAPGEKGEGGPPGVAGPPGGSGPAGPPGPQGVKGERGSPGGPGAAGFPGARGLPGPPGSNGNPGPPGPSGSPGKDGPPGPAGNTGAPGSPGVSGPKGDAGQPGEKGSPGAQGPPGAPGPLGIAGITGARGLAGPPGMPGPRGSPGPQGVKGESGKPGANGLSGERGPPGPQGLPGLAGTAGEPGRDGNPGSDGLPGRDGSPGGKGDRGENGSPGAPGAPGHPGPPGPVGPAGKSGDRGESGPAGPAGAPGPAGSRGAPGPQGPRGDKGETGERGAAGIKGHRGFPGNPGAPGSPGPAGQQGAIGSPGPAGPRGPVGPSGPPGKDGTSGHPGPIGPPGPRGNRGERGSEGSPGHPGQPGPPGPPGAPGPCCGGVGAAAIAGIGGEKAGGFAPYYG
Assay: Competition assay: Gd(III) tetrameric probe displaces Eu(III) monomeric probe from COL3
Assay type: binding
Conditions: 5 µM Eu(III) monomeric probe, Gd tetrameric probe 0.01–200 µM, 1 h room temperature
Protocol: The binding interactions of the tetrameric Gd(III)-labelled probes with COL3 were studied by a competition assay, as Gd(III) is not suitable for TRF based assays. In competition assays, the binding of the Gd(III)-labelled tetrameric probe of interest to the target protein was measured by competition with the corresponding Eu(III)-labelled monomeric probe. Specifically, a row of wells was coated with collagen (COL3) and added with a constant amount of the Eu(III)-labelled probe of interest (e.g. Eu-DOTAMA-CBP1). Wells were then added and incubated with increasing concentrations of the corresponding tetrameric Gd(III)-labelled probes (e.g. [Gd-DOTAMA]4-CBP1). Displacement curves were then obtained by plotting the residual Eu(III) TRF against the concentration of the Gd(III)-labelled probe. Briefly, eight solutions were made containing a fixed concentration of Eu(III)-monomeric probe (5 µM) and increasing concentrations of the Gd-tetrameric probe (0.01–200 µM). Plates pre-coated with COL3 were simultaneously incubated with both compounds for 1 h at room temperature (triplicate wells per plate and 3 independent plates). After the incubation, the Eu(III) TRF assay protocol including the acid extraction and enhancement solution steps were used to measure the binding of the monomeric probe in the presence of the competing tetrameric probe, as previously described. […]

| Substance | displacement of the monomeric Eu(III)-labelled counterpart from COL3 (in words) |
| --- | --- |
| Ac-C-RDKKVAEQS [[Gd-DOTAMA]4-SccCBP1, scrambled tetrameric Gd probe (Ac-C-…), negative control] | cannot |
| Ac-C-TEFPLRMRDWLKN [[Gd-DOTAMA]4-CBP2, tetrameric probe: tri-lysine scaffold bearing four Gd-DOTAMA units conjugated at the N-terminus of CBP2] | can be observed only at very high concentrations |
